Source: patent publication US20260305610A1, “TRIAZOLE COMPOUND, AND PREPARATION METHOD THEREFOR, HERBICIDAL COMPOSITION AND USE THEREOF” (QINGDAO KINGAGROOT CHEMICAL COMPOUND CO., LTD., priority 2023, published 2026)

Legend:
Type in all cases: in vivo
[1] = system: weeds; test: Activity assay of compositions: soil sealing treatment (S), fresh weight inhibition and combined effect (Gowing method); conditions: 21 d
Description: The required active ingredient B was purchased from a reagent company or a technical material manufacturer or synthesized by a conventional method. The technical materials were all dissolved with acetone solvents and diluted with aqueous solution of 0.1% Tween-80 emulsifier, which should be used immediately after dilution.
• Weeds were cultivated in a controllable sunlight greenhouse at 20 to 30° C., in natural light, and with relative humidity of 57% to 72%. […] The test soil was quantitatively filled to ¾ of the pot, and then watered from the bottom of the pot to completely wet the soil to saturation. The test weed seeds were accelerated to just germinate, and then evenly and quantitatively broadcasted on the soil surface, covered with 0.5-1 cm soil according to the sizes of the seeds, and ready for use 72 hours after sowing.
Each treatment was repeated 4 times. Four pots with 20 weed seeds sowed per pot were treated each time.
The well-sowed test materials were evenly placed on a platform with an area of 0.5 m^2, and foliage spraying was carried out by the 3WP-2000-type walking spray tower at a dosage of 450 kg/ha and a spray pressure of 0.3 MPa. After all the solution was sprayed, the air valve was closed. And 30 seconds later, the door of the spray tower was opened, and the nutritional bowl was taken out. Next, the air valve was opened, and the spray tube was cleaned by spraying 50 ml of water.
A method for investigating absolute numbers was employed. Whole seedlings of survival weeds were cut off along the soil surface with a blade, and the fresh weight of the weeds was weighed using an analytical balance. For dead weeds, the fresh weight thereof was zero.
The investigation was performed 21 days after the treatment for once in total.
The theoretical fresh weight inhibition rate of a mixed combination of each treatment was calculated by the Gowing method (E0=X+Y−X*Y/100). Then compared with the measured inhibition rate (E), the type of the combined effect of the combination of the two on weeds was evaluated, which was a synergistic effect when E−E0>10%; an antagonistic effect when E−E0<−10%; an additional effect when −10%≤E−E0≤10%. An optimal ratio was determined according to factors such as the actual control effects, characteristics of herbicides, balance of the formulation, etc. In the formula, X represents the fresh weight inhibition rate of the active ingredient A in a dosage of P; Y represents the fresh weight inhibition rate of the active ingredient B in a dosage of Q. The statistical results are shown in Table 4.

[2] = system: major crops; test: Pre-emergence test experiment (crops); set-up: key: 9: completely dead; 8: growth control rate is greater than or equal to 90% and less than 100%; 7: growth control rate is greater than or equal to 80% and less than 90%; 6: growth control rate is greater than or equal to 70% and less than 80%; growth control rate is greater than or equal to 50% and less than 70%; 4: growth control rate is greater than or equal to 30% and less than 50%; growth control rate is greater than or equal to 20% and less than 30%; growth control rate is greater than or equal to 10% and less than 20%; growth control rate is less than 10%; 0: no effect; conditions: 30 g a.i./ha
[3] = system: monocotyledonous and dicotyledonous weeds; test: Pre-emergence test experiment (weeds); set-up: key: 9: completely dead; 8: growth control rate is greater than or equal to 90% and less than 100%; 7: growth control rate is greater than or equal to 80% and less than 90%; 6: growth control rate is greater than or equal to 70% and less than 80%; growth control rate is greater than or equal to 50% and less than 70%; 4: growth control rate is greater than or equal to 30% and less than 50%; growth control rate is greater than or equal to 20% and less than 30%; growth control rate is greater than or equal to 10% and less than 20%; growth control rate is less than 10%; 0: no effect; conditions: 30 g a.i./ha
[4] = Commelina communis, B 30 g a.i./ha
[5] = Commelina communis, B 60 g a.i./ha
[6] = Lolium multiflorum, B 75 g a.i./ha
[7] = Lolium multiflorum, B 150 g a.i./ha

Compound	Pre-emergence plant damage level (growth control rate) on Corn [2]	Pre-emergence plant damage level (growth control rate) on Cotton [2]	Pre-emergence plant damage level (growth control rate) on Soybean [2]	Pre-emergence activity level (growth control rate) on Amaranthus retroflexus [3]	Pre-emergence activity level (growth control rate) on Descurainia sophia [3]	Pre-emergence activity level (growth control rate) on Digitaria sanguinalis [3]	Pre-emergence activity level (growth control rate) on Setaria viridis [3]	Pre-emergence activity level (growth control rate) on Solanum nigrum [3]	Pre-emergence activity level (growth control rate) on Veronica [3]	further results
COC(=O)[C@@H](C)O/N=C/c1cc(-n2c(=O)cc(C(F)(F)F)n(C)c2=O)c(F)cc1Cl	–	–	–	–	–	–	–	–	–	Control effect of B applied alone in a corresponding dose (%) [1, 4]: 28.5%; Control effect of B applied alone in a corresponding dose (%) [1, 5]: 46.1%
CCC[S@@+]([O-])c1c(C(F)(F)F)ccc(C(=O)Nc2nnc(C)o2)c1F	–	–	–	–	–	–	–	–	–	Control effect of B applied alone in a corresponding dose (%) ([1]; Ammannia arenaria, B 15 g a.i./ha): 26.1%; Control effect of B applied alone in a corresponding dose (%) ([1]; Ammannia arenaria, B 30 g a.i./ha): 43.8%
CC1(C)CON(Cc2ccc(Cl)cc2Br)C1=O	–	–	–	–	–	–	–	–	–	Control effect of B applied alone in a corresponding dose (%) [1, 6]: 43.7%; Control effect of B applied alone in a corresponding dose (%) [1, 7]: 61.0%
CC(C)C12CCC(C)(O1)C(OCc1c(F)cccc1Br)C2 (stereo not shown)	–	–	–	–	–	–	–	–	–	Control effect of B applied alone in a corresponding dose (%) ([1]; Lolium multiflorum, B 30 g a.i./ha): 55.2%; Control effect of B applied alone in a corresponding dose (%) ([1]; Lolium multiflorum, B 60 g a.i./ha): 70.4%
C[C@@H](Oc1nc(F)c(Cl)c(N)c1Cl)C(=O)OCC1CCCO1 (stereo partly shown)	–	–	–	–	–	–	–	–	–	Control effect of B applied alone in a corresponding dose (%) ([1]; Silene conoidea, B 75 g a.i./ha): 48.0%; Control effect of B applied alone in a corresponding dose (%) ([1]; Silene conoidea, B 150 g a.i./ha): 54.2%
C[C@@H](Oc1nc(F)c(Cl)c(N)c1Cl)C(=O)O	–	–	–	–	–	–	–	–	–	Control effect of B applied alone in a corresponding dose (%) [1, 7]: 38.4%; Control effect of B applied alone in a corresponding dose (%) ([1]; Lolium multiflorum, B 300 g a.i./ha): 53.7%
Cc1ccccc1CO[C@@H]1C[C@@]2(C(C)C)CC[C@]1(C)O2 (racemic) [Cinmethylin]	–	–	–	–	–	–	–	–	–	Control effect of B applied alone in a corresponding dose (%) ([1]; Eclipta prostrata, B 7.5 g a.i./ha): 51.5%; Control effect of B applied alone in a corresponding dose (%) ([1]; Eclipta prostrata, B 15 g a.i./ha): 72.0%
CCOC(=O)C1(C)CC(c2cc(-n3c(=O)cc(C(F)(F)F)n(C)c3=O)c(F)cc2Cl)=NO1 (stereo not shown) [3-[2-chloro-5-[3,6-dihydro-3-methyl-2,6-dioxo-4-(trifluoromethyl)-1(2H)-pyrimidinyl]-4-fluorophenyl]-4,5-dihydro-5-methyl-5-isoxazolecarboxylic acid ethyl ester]	–	–	–	–	–	–	–	–	–	Control effect of B applied alone in a corresponding dose (%) [1, 4]: 35.0%; Control effect of B applied alone in a corresponding dose (%) [1, 5]: 47.3%
CCOCN(C(=O)CCl)c1c(C)cccc1CC [Acetochlor]	–	–	–	–	–	–	–	–	–	Control effect of B applied alone in a corresponding dose (%) ([1]; Amaranthus retroflexus, B 150 g a.i./ha): 40.2%; Control effect of B applied alone in a corresponding dose (%) ([1]; Amaranthus retroflexus, B 300 g a.i./ha): 58.3%
COP(=S)(OC)SCC(=O)N(c1ccc(Cl)cc1)C(C)(C)C [Anilofos]	–	–	–	–	–	–	–	–	–	Control effect of B applied alone in a corresponding dose (%) ([1]; Eclipta prostrata, B 75 g a.i./ha): 14.2%; Control effect of B applied alone in a corresponding dose (%) ([1]; Eclipta prostrata, B 150 g a.i./ha): 23.6%
CCNc1nc(Cl)nc(NC(C)C)n1 [Atrazine]	–	–	–	–	–	–	–	–	–	Control effect of B applied alone in a corresponding dose (%) ([1]; Chloris virgata, B 300 g a.i./ha): 40.1%; Control effect of B applied alone in a corresponding dose (%) ([1]; Chloris virgata, B 600 g a.i./ha): 58.9%
CS(=O)(=O)c1ccc(C(=O)C2=C(Sc3ccccc3)C3CCC(C3)C2=O)c(Cl)c1 (stereo not shown) [Benzobicyclon]	–	–	–	–	–	–	–	–	–	Control effect of B applied alone in a corresponding dose (%) ([1]; Eclipta prostrata, B 22.5 g a.i./ha): 49.2%; Control effect of B applied alone in a corresponding dose (%) ([1]; Eclipta prostrata, B 45 g a.i./ha): 74.0%
CC1(C)CON(Cc2ccc(Cl)cc2Cl)C1=O [Bixlozone]	–	–	–	–	–	–	–	–	–	Control effect of B applied alone in a corresponding dose (%) [1, 6]: 50.2%; Control effect of B applied alone in a corresponding dose (%) [1, 7]: 70.0%
COCc1ccc(-n2cnc(C(F)(F)F)n2)nc1Oc1ccc(F)c(C(F)(F)F)c1 [Compound 143]	0	0	0	9	9	8 (growth control rate is greater than or equal to 90% and less than 100%)	9	9	9	–
COCc1ccc(-n2cnc(C(F)(F)F)n2)nc1Oc1cccc(C(F)F)c1 [Compound 144]	0	0	0	9	9	8 (growth control rate is greater than or equal to 90% and less than 100%)	9	9	9	–
COCc1ccc(-n2cnc(C(F)(F)F)n2)nc1Oc1cccc(OC(F)(F)F)c1 [Compound 145]	0	0	0	9	9	9	9	9	9	–
COCc1ccc(-n2cnc(C(F)(F)F)n2)nc1Oc1ccc(F)c(OC(F)(F)F)c1 [Compound 146]	0	0	0	9	9	8 (growth control rate is greater than or equal to 90% and less than 100%)	9	9	9	–
COCc1ccc(-n2cnc(C(F)(F)F)n2)nc1Oc1ccc(F)c(OC(F)F)c1 [Compound 147]	0	0	0	9	9	8 (growth control rate is greater than or equal to 90% and less than 100%)	9	9	9	–
COCc1ccc(-n2cnc(C(F)(F)F)n2)nc1Oc1cccc(OC(F)F)c1 [Compound 148]	0	0	0	9	9	8 (growth control rate is greater than or equal to 90% and less than 100%)	9	9	9	–
COCc1ccc(-n2cnc(C(F)(F)F)n2)nc1Oc1cccc(C)c1 [Compound 149]	0	0	0	–	–	8 (growth control rate is greater than or equal to 90% and less than 100%)	8 (growth control rate is greater than or equal to 90% and less than 100%)	–	–	–
